Measured values taken from paper PMC13294250, “An effort to enhance the clinical translatability of caprate-based tablet formulations in gastric peptide delivery” (Drug Delivery and Translational Research, 2025).
Like-named read-outs stand apart in the source and are kept apart here.

Assays:
[1] = cited from earlier work
Source text: Given the negative impact of low gastric pH on both in vitro and in vivo performance of C10-based tablets, the use of a pH modifier was investigated to mitigate the acidity of the human stomach. Since C10 is an ionizable compound known to form different colloidal structures dependant on pH, selection of an appropriate pH modifier is paramount. The resulting pH should enable fast disintegration and dissolution of the formulation, whilst securing that the colloidal species formed facilitate the permeation enhancing effect needed for absorption of the macromolecule. Monomeric C10 is presumed to b ...

[2] = CAC and CMC determinations by dynamic light scattering; format: physicochemical; conditions: DLS at 25 °C
Description: Stock solutions of sodium caprate were made in the individual buffers. 10–100 mM phosphate buffer was used for most sample series, while 50 mM sodium borate was used for pH 9 [31]. In the case of meglumine a 20 mM Tris buffer pH 8.5 was used. Samples were prepared with and without 20 mg/ml meglumine. All samples were pH adjusted and filtered through 0.22 μm (Millipore 6830-0021). Dynamic light scattering (DLS) data was acquired at 25 °C by adding 20–25 µL of each sample in triplicates to a 384 well plate Corning® 3540 (Corning, NY, USA). The plate was centrifuged for 5 min at 1200 rpm before analysis to remove any air bubbles from the wells. […] A DynaPro™ Plate Reader and Dynamics™ software version 7 (Wyatt Technology Corp., Santa Barbara, CA, USA) was used to collect and analyze the data.

[3] = sodium carbonate as pH modifier candidate in C10 tablets, oral
Description: On top of elevating the pH, the pH-modifying excipient needs to ensure manufacturability of tablets while being compatible with the API in the formulation. An array of alkaline agents capable of increasing the pH were screened (Figure S2) by addition of the pH modifier in 20 mL of acidic media (0.1 M HCl) with 0.1 M KCl, and 10 mg/mL of C10 at 37 °C, which is close to the physiological condition of experimental animals when C10 tablet formulation is dosed. The volume and concentration of HCl and KCl were selected to replicate the gastric in vivo conditions, whereas C10 was added to mimic the intrinsic buffer capacity of the PE present in the tablet.

[4] = Screening of the meglumine amount in acidic medium containing C10; format: physicochemical; conditions: 37 °C, pH meter
Description: In addition, it is an approved pharmaceutical excipient marketed in several oral dosage forms such as telmisartan, repaglinide and rosuvastatine tablets. To identify the most suitable meglumine amount for C10-based tablets, a systematic screening was conducted in 20 mL acidic medium (KCl 0.1 M/ HCl 0.025 M, 10 mL + 10 mL of MQ water) reflecting the composition of dog gastric fluid after dosing of water. The medium contained either 50, 100, 200, or 300 mg of C10 to account for different enhancer amounts, and the evolution of pH against added meglumine amount was monitored (Table 1). Since a final pH above 8.5 around the tablet in the stomach is desirable for C10 dissolution and to achieve the single-phased micellar system with high monomeric C10 availability, the corresponding meglumine amount needed to reach pH 8.5 was set as the lower limit for formulation development.
A stock solution of KCl 0.1 M/ HCl 0.025 M, pH = 1.6 was prepared. 10mL of this solution was added to 10 mL of MQ water in tubes containing either 50, 100, 200, or 300 mg of C10 granules. Each solution was gently stirred at 37 °C. Meglumine was added in amounts beyond the calculated neutralization point. pH was recorded using a pH meter PHM 200 (Mettler Toledo). Turbidity/clarity was visually assessed for records.

[5] = no reference given; cited from earlier work
Source text: Meglumine was selected due to its capability to both raise the pH to the desired level and produce tablets with the required quality. […] In addition, it is an approved pharmaceutical excipient marketed in several oral dosage forms such as telmisartan, repaglinide and rosuvastatine tablets. To identify the most suitable meglumine amount for C10-based tablets, a systematic screening ...

[6] = 50 mg C10 / 20 mL acidic medium (10 mL KCl 0.1 M/HCl 0.025 M pH 1.6 + 10 mL MQ water)
[7] = 200 mg C10 / 20 mL acidic medium (10 mL KCl 0.1 M/HCl 0.025 M pH 1.6 + 10 mL MQ water)
[8] = 300 mg C10 / 20 mL acidic medium (10 mL KCl 0.1 M/HCl 0.025 M pH 1.6 + 10 mL MQ water)

CCCCCCCCCC(=O)[O-].[Na+] [Formulation C10, Sodium caprate]
critical micelle concentration (CMC) ([1]; pH 9.1): 81 mM | critical micelle concentration (CMC) ([1]; pH 11.8): 102 mM | critical aggregate concentration (CAC) of C10 vesicles ([2]; pH lower than approximately 8.5, phosphate buffer, triplicates): around 15 mM

O=C([O-])[O-].[Na+].[Na+] [Sodium carbonate]
adverse events in dogs [3]: vomiting

CNC[C@H](O)[C@@H](O)[C@H](O)[C@H](O)CO [meglumine, Meglumine]
Amount of meglumine (mg) to pH 8.5 [4, 6]: 15 mg | Amount of meglumine (mg) to pH 9.5 [4, 6]: 25 mg | Amount of meglumine (mg) to pH 9.5 ([4]; 100 mg C10 / 20 mL acidic medium (10 mL KCl 0.1 M/HCl 0.025 M pH 1.6 + 10 mL MQ water)): 60 mg | Amount of meglumine (mg) to pH 8.5 [4, 7]: 60 mg | Amount of meglumine (mg) to pH 9.5 [4, 7]: 100 mg | Amount of meglumine (mg) to pH 8.5 [4, 8]: 90 mg | Amount of meglumine (mg) to pH 9.5 [4, 8]: 125 mg | pKa [5]: 9.6 | impact of meglumine on the CMC of C10 (in words) ([2]; 20 mM Tris buffer pH 8.5, with and without 20 mg/ml meglumine): did not show any impact
